Converted amounts (≈) assume the structure as drawn. The source made the active and inactive calls. No rule for the calls is given here.
System: aqueous buffer solubility, pH 5.0/6.2/7.4
Experiment: compound solubility, pH 5.0, 6.2, 7.4 – biophysical, set 2, ADME assay (AID 624323)
Settings: at 100 µM, stronger effect = higher value
[1] = measured here: solubility at pH 5.0
[2] = measured here: solubility at pH 6.2

| Structure (SMILES) | solubility | solubility [1] [µg/mL] | solubility [2] [µg/mL] |
| --- | --- | --- | --- |
| CCCOc1ccc(-c2nc(OC)c3ccccc3n2)cc1 | 0.02 µg/mL (inactive) (≈ 0.0679 µM) | 0.05 (≈ 0.17 µM) | < 0.01 |
| COC(=O)c1ccccc1NC(=O)c1ccc(F)cc1 | 0.69 µg/mL (inactive) (≈ 2.53 µM) | 0.85 (≈ 3.11 µM) | 0.9 (≈ 3.29 µM) |
| Cc1cc2c(s1)c1cnn(Cc3ccccc3F)c(=O)c1n2C | 0.11 µg/mL (inactive) (≈ 0.336 µM) | 0.16 (≈ 0.489 µM) | 0.19 (≈ 0.58 µM) |
| O=C(O)c1ccccc1OCc1ccccc1Br | > 30 µg/mL | > 30 | > 30 |
| Cn1nnnc1Sc1ncnc2scc(-c3ccccc3)c12 | 3.5 µg/mL (inactive) (≈ 10.7 µM) | 2.9 (≈ 8.88 µM) | 3.1 (≈ 9.5 µM) |
| Cc1ccc(N2CCN(S(=O)(=O)N3CCCCC3)CC2)c(C)c1 | 1.6 µg/mL (inactive) (≈ 4.74 µM) | 1.8 (≈ 5.33 µM) | 1.5 (≈ 4.44 µM) |
| O=C1NCCCc2c1oc1ccc(O)cc21 | > 22 µg/mL | > 22 | > 22 |
| Cc1ccc(S(=O)(=O)n2c(N)nc3ccccc32)cc1 | 2.4 µg/mL (inactive) (≈ 8.35 µM) | 2.3 (≈ 8 µM) | 2.4 (≈ 8.35 µM) |
| COc1ccc(Sc2ccc(NC(=O)c3ccccc3Cl)cc2C#N)cc1 | 0 µg/mL (inactive) | 0.01 (≈ 0.0253 µM) | < 0.01 |
| COc1ccc(OC)c(-c2nnc3n2N=C(c2ccc(OC)c(OC)c2)CS3)c1 | 26.1 µg/mL (≈ 63.3 µM) | 28.2 (≈ 68.4 µM) | 29.5 (≈ 71.5 µM) |
| Brc1cc2c(cc1C1Nc3ccccc3C3C=CCC31)OCO2 (stereo not drawn) | < 0.01 µg/mL (inactive) | < 0.01 | 0.04 (≈ 0.108 µM) |
| CCCC(=O)Nc1cccc(NC(=O)c2ccccc2Br)c1 | > 36 µg/mL | > 36 | > 36 |
| COc1cc(NC(=O)c2cc(C3CC3)on2)c(OC)cc1Cl | 0.06 µg/mL (inactive) (≈ 0.186 µM) | < 0.01 | 0.05 (≈ 0.155 µM) |
| O=C1CCCC2=C1C1(CCCC1)N=C(Nc1nc3ccccc3o1)N2 | 0.07 µg/mL (inactive) (≈ 0.208 µM) | 0.07 (≈ 0.208 µM) | 0.09 (≈ 0.268 µM) |
| CC(C)(C)OC(=O)NCCc1nnc(S(=O)(=O)Cc2ccc(Cl)cc2Cl)o1 | 7.4 µg/mL (inactive) (≈ 17 µM) | 14.6 (≈ 33.5 µM) | 4.8 (≈ 11 µM) |
| CCCN(CCC)CCNC(=O)C1CCN(Cc2nc(-c3ccc(Cl)cc3)oc2C)CC1 | > 46 µg/mL | > 46 | > 46 |
| CCc1oc2ccccc2c1C(=O)c1cc(Br)c(O)c(Br)c1 | > 42 µg/mL | 0.18 (≈ 0.424 µM) | 26.1 (≈ 61.5 µM) |
| c1ccc(-c2nnc(N3CCOCC3)nc2-c2ccccc2)cc1 | 2.3 µg/mL (inactive) (≈ 7.22 µM) | 2 (≈ 6.28 µM) | 1.8 (≈ 5.65 µM) |
| COc1ccc(S(=O)(=O)n2nc(OC(=O)c3ccccc3)cc2N)cc1 | 14.9 µg/mL (≈ 39.9 µM) | 0.46 (≈ 1.23 µM) | 2 (≈ 5.36 µM) |
| Cc1ccc(NS(=O)(=O)c2ccc3c(c2)CCC(=O)N3)cc1C | 27.1 µg/mL (≈ 82 µM) | 26.2 (≈ 79.3 µM) | > 33 |
| O=c1c2ccccc2[se]n1-c1ccccc1 | 5.6 µg/mL (inactive) (≈ 20.4 µM) | 5 (≈ 18.2 µM) | 6 (≈ 21.9 µM) |
| COc1nc(-c2ccccc2)nnc1-c1ccccc1 | 0.38 µg/mL (inactive) (≈ 1.44 µM) | 1 (≈ 3.8 µM) | 0.78 (≈ 2.96 µM) |

| Structure (SMILES) | solubility | solubility [1] [µg/mL] | solubility [2] [µg/mL] |
| --- | --- | --- | --- |
| Cc1cc(C(=O)CN2C(=O)CCC2=O)c(C)n1Cc1ccccc1 | > 32 µg/mL | 25.2 (≈ 77.7 µM) | 22.6 (≈ 69.7 µM) |
| COc1ccc(N(C(=O)CCl)C(C(=O)NCCc2ccccc2)c2cccs2)cc1Cl (stereo not drawn) | 1.2 µg/mL (inactive) (≈ 2.51 µM) | 0.61 (≈ 1.28 µM) | 0.86 (≈ 1.8 µM) |
| COc1ccc(CNCc2cccc3ccccc23)cc1 | 26.2 µg/mL (≈ 94.5 µM) | > 36 | > 36 |
| COc1ccccc1N(/N=C1\Sc2ccccc2C1=O)C(C)=O | 2.4 µg/mL (inactive) (≈ 7.35 µM) | 2.4 (≈ 7.35 µM) | 2.7 (≈ 8.27 µM) |
| O=[N+]([O-])c1ccc(CN2CCOCCOCCN(Cc3ccc([N+](=O)[O-])cc3)CCOCC2)cc1 | 27.4 µg/mL (≈ 56.1 µM) | > 48 | > 48 |
| Cc1ccc(C(=O)n2c3ccccc3c3ccccc32)cc1 | < 0.01 µg/mL (inactive) | < 0.01 | < 0.01 |
| CN(C)c1nc(N)nc(CSc2nnnn2-c2cccc3ccccc23)n1 | 1 µg/mL (inactive) (≈ 2.64 µM) | 2.8 (≈ 7.38 µM) | 1 (≈ 2.64 µM) |
| Cc1ccc(C)c(OCCn2cc(C(=O)O)c3ccccc32)c1 | 20.1 µg/mL (≈ 65 µM) | 0.19 (≈ 0.614 µM) | 0.34 (≈ 1.1 µM) |
| CN(C)C1=C(Cl)C(=O)N(c2ccc(Cl)c(Cl)c2)C1=O | < 0.01 µg/mL (inactive) | 0.06 (≈ 0.188 µM) | 0.12 (≈ 0.375 µM) |
| CC(C)C(=O)NC(c1ccco1)c1ccc2cccnc2c1O (stereo not drawn) | 3.3 µg/mL (inactive) (≈ 10.6 µM) | 2.8 (≈ 9.02 µM) | 2.7 (≈ 8.7 µM) |
| CN(C)c1oc(-c2ccc(OCc3ccc(Cl)cc3)cc2)nc1C#N | 0.08 µg/mL (inactive) (≈ 0.226 µM) | 0.17 (≈ 0.48 µM) | < 0.01 |
| O=c1oc2c(O)c(O)cc3c(=O)oc4c(O)c(O)cc1c4c23 | > 30 µg/mL | 7.9 (≈ 26.1 µM) | > 30 |
| CC[C@H]1CN2CCc3cc(OC)c(OC)cc3[C@@H]2C[C@@H]1C[C@H]1NCCc2cc(OC)c(OC)cc21 | > 55 µg/mL | > 55 | > 55 |
| COc1ccc(C2CC(c3ccccc3)=NN2c2ccc(S(N)(=O)=O)cc2)cc1 (stereo not drawn) | 0.05 µg/mL (inactive) (≈ 0.123 µM) | 0.06 (≈ 0.147 µM) | 0.04 (≈ 0.0982 µM) |
| CN1CSC(=S)N(C)C1 | > 16 µg/mL | 12.4 (≈ 76.4 µM) | 12.7 (≈ 78.3 µM) |
| CCCN1CNc2c(c(=O)[nH]c(=S)n2CCc2ccc(OC)c(OC)c2)C1 | > 39 µg/mL | > 39 | > 39 |
| CCCn1ncc(CN2CCCC(C(=O)c3cccc(OC(C)C)c3)C2)c1C (stereo not drawn) | > 38 µg/mL | > 38 | > 38 |
| Cc1nc(SCc2nc3ccccc3[nH]2)c2oc3ccccc3c2n1 | 0.11 µg/mL (inactive) (≈ 0.318 µM) | 0.26 (≈ 0.751 µM) | 0.22 (≈ 0.635 µM) |
| Cc1cc(C)nc(-n2nc(C)c(Sc3ccc(F)cc3)c2N)n1 | 9.3 µg/mL (inactive) (≈ 28.2 µM) | 5.6 (≈ 17 µM) | 8.6 (≈ 26.1 µM) |
| CCCc1nc2c(=O)n(C)c(=O)nc-2n(C)n1 | > 23 µg/mL | > 23 | > 23 |
| c1ccc(CC2CCN(c3ncnc4sccc34)CC2)cc1 | < 0.01 µg/mL (inactive) | < 0.01 | 0.01 (≈ 0.0323 µM) |
| Cc1cc(C)n(-c2nc(NCCCO)c3c4c(sc3n2)CCCC4)n1 | 20.7 µg/mL (≈ 57.9 µM) | 17.6 (≈ 49.2 µM) | 20.4 (≈ 57.1 µM) |

| Structure (SMILES) | solubility | solubility [1] [µg/mL] | solubility [2] [µg/mL] |
| --- | --- | --- | --- |
| CCOc1ccc(-c2nc(-c3ccncc3)no2)cc1OCC | 1.3 µg/mL (inactive) (≈ 4.18 µM) | 1.1 (≈ 3.53 µM) | 1.3 (≈ 4.18 µM) |
| Oc1cc(O)cc(/C=C/c2ccc(O)c(O)c2)c1 | 10.1 µg/mL (≈ 41.4 µM) | > 24 | > 24 |
| CCN1CCN(c2nc3ccccc3nc2C(C#N)C(=O)OC2CCCCC2)CC1 (stereo not drawn) | 25.8 µg/mL (≈ 63.3 µM) | > 40 | > 40 |
| O=c1[nH]c2c(s1)C(c1cccnc1)C1C3CCC(C3)C1S2 (stereo not drawn) | 21.7 µg/mL (≈ 68.6 µM) | 24 (≈ 75.8 µM) | 21.8 (≈ 68.9 µM) |
| Cc1ccc(NC(=O)CCC(=O)N/N=C/c2ccc([N+](=O)[O-])o2)cc1C | 0.29 µg/mL (inactive) (≈ 0.809 µM) | 0.19 (≈ 0.53 µM) | 0.3 (≈ 0.837 µM) |
| O=C(O)c1ccc(N2C(=O)/C(=C/c3ccc(-c4ccc([N+](=O)[O-])cc4)o3)C=C2c2ccccc2)cc1 | 0.79 µg/mL (inactive) (≈ 1.65 µM) | 0.59 (≈ 1.23 µM) | 13.4 (≈ 28 µM) |
| Cc1ccccc1N1CCN(c2ncnc3c2cnn3Cc2ccc(Cl)cc2)CC1 | < 0.01 µg/mL (inactive) | 0.03 (≈ 0.0716 µM) | < 0.01 |
| Cc1ccc(S(=O)(=O)NCc2ccc(C(=O)NCCN(Cc3ccccc3)C(C)C)cc2)cc1 | 19.6 µg/mL (≈ 40.9 µM) | > 47 | 34.7 (≈ 72.3 µM) |
| O=C(CSc1cccc2cccnc12)N1CCCC1 | > 27 µg/mL | > 27 | > 27 |
| O=C(COC(=O)C12CC3CC(CC(C3)C1)C2)NCc1ccco1 | 2.6 µg/mL (inactive) (≈ 8.19 µM) | < 0.1 | 4.2 (≈ 13.2 µM) |
| Cc1ccc(C)c(NS(=O)(=O)c2cc(C(=O)Nc3ccccc3-c3ccccc3)ccc2Cl)c1 | 0.81 µg/mL (inactive) (≈ 1.65 µM) | < 0.1 | < 0.1 |
| O=c1c(O)c(-c2cc(O)c(O)c(O)c2)oc2cc(O)cc(O)c12 | 1.7 µg/mL (inactive) (≈ 5.34 µM) | 3.2 (≈ 10.1 µM) | 5.3 (≈ 16.7 µM) |
| Cc1ccc(-n2c(N)c(C#N)c(-c3ccccc3)c(C#N)c2=O)cc1 | 0.84 µg/mL (inactive) (≈ 2.57 µM) | 0.79 (≈ 2.42 µM) | 0.93 (≈ 2.85 µM) |
| COc1cccc(-c2nc(-c3ccc(NC(=O)Cc4ccccc4OC)cc3)no2)c1 | < 0.01 µg/mL (inactive) | 0.09 (≈ 0.217 µM) | 0.05 (≈ 0.12 µM) |
| O=S1(=O)Nc2c(ccc3cccnc23)-c2ccccc21 | > 2.8 µg/mL (inactive) | 9.6 (≈ 34 µM) | 13.6 (≈ 48.2 µM) |
| O=C(c1ccccn1)N(Cc1cccs1)C1(C(=O)NC2CCCCC2)CCCCC1 | 22.7 µg/mL (≈ 53.3 µM) | 7.4 (≈ 17.4 µM) | 15 (≈ 35.2 µM) |
| C=CCn1c(SCC(=O)c2ccc(O)c(O)c2)nnc1-c1ccccc1OC | 24 µg/mL (≈ 60.4 µM) | 4.5 (≈ 11.3 µM) | 5.3 (≈ 13.3 µM) |
| Cc1cc(-c2nnc3n2CCCCC3)c(C)n1-c1ccccc1 | > 30 µg/mL | > 30 | > 30 |
| NC(=O)C1CCN(c2nc(-c3ccc(Br)cc3)cs2)CC1 | 0.12 µg/mL (inactive) (≈ 0.328 µM) | 0.14 (≈ 0.382 µM) | 0.14 (≈ 0.382 µM) |
| O=c1[nH]c(SCc2ccc(Cl)cc2)nc2c1CCC2 | 0.94 µg/mL (inactive) (≈ 3.21 µM) | 0.45 (≈ 1.54 µM) | 0.52 (≈ 1.78 µM) |
| O=C1C2CC=CCC2C(=O)N1c1n[nH]c(-c2ccccc2)n1 (stereo not drawn) | > 29 µg/mL | 16 (≈ 54.4 µM) | 20.2 (≈ 68.6 µM) |
| O=C(CCNS(=O)(=O)c1cccc2nsnc12)N1CCN(c2ccccn2)CC1 | > 43 µg/mL | 35.8 (≈ 82.8 µM) | 35.5 (≈ 82.1 µM) |
